In patent US20240016773A1, “COMPOSITIONS AND METHODS FOR DIAGNOSIS AND TREATMENT OF CONDITIONS RELATED TO AGING” (EPITRACKER, INC., priority 2018, published 2024):

Assays:
[1] = tested on: BT system: peripheral blood mononuclear cells, B cells (α-IgM, TCR ligands); test: BioMAP Diversity PLUS, BT system; format: cell-based, human
Excerpt: (§1) The Diversity PLUS panel allows test agent characterization in an unbiased way across a broad set of systems modeling various human disease states. These systems are designed to model complex human tissue and disease biology of the vasculature, skin, lung, and inflammatory tissues. Quantitative measurements of 148 biomarker activities across this broad panel, along with comparative analysis of biological activities from known bioactive agents, were used to predict and compare the efficacy and function of each selected compound at four concentrations (740 nm and 2.2, 6.7 and 20 μM).
(§2) BioMAP systems are constructed with one or more primary cell types from healthy human donors, with stimuli (such as cytokines or growth factors) added to capture relevant signaling networks that naturally occur in human tissue or pathological conditions. Vascular biology is modeled in both a Th1 (3C system) and a Th2 (4H system) inflammatory environment, as well as in a Th1 inflammatory state specific to arterial smooth muscle cells (CASM3C system). Additional systems recapitulate aspects of the systemic immune response including monocyte-driven Th1 inflammation (LPS system) or T cell stimulation (SAg system), chronic Th1 inflammation driven by macrophage activation (lMphg system) and the T cell-dependent activation of B cells that occurs in germinal centers (BT system). The BE3C system (Th1) and the BF4T system (Th2) represent airway inflammation of the lung, while the MyoF system models myofibroblast-lung tissue remodeling. Lastly, skin biology is addressed in the KF3CT system modeling Th1 cutaneous inflammation and the HDF3CGF system modeling wound healing.
(§3) Each test agent generates a signature BioMAP profile that is created from the changes in protein biomarker readouts within individual system environments. Biomarker readouts (7-17 per system) are selected for therapeutic and biological relevance, are predictive for disease outcomes or specific drug effects and are validated using agents with known mechanism of action (MoA). Each readout is measured quantitatively by immune-based methods that detect protein (e.g., ELISA) or functional assays that measure proliferation and viability. BioMAP readouts are diverse and include cell surface receptors, cytokines, chemokines, matrix molecules and enzymes. In total, the Diversity PLUS panel contains 148 biomarker readouts that capture biological changes that occur within the physiological context of the particular BioMAP system. Specific BioMAP activities have been correlated to in vivo biology, and multiparameter BioMAP profiles have been used to distinguish compounds based on MoA and target selectivity across diverse physiological systems.
(§4) Activated BioMAP systems were incubated with each compound for 24 to 72 hours. Protein-based biomarkers from activated cell systems were measured and compared with non-treated control systems.

[2] = tested on: BF4T system: bronchial epithelial cells, dermal fibroblasts (IL-4, TNF-α); test: BioMAP Diversity PLUS, BF4T system; format: cell-based, human
Excerpt: as §1
(§5) BioMAP systems are constructed with one or more primary cell types from healthy human donors, with stimuli (such as cytokines or growth factors) added to capture relevant signaling networks that naturally occur in human tissue or pathological conditions. Vascular biology is modeled in both a Th1 (3C system) and a Th2 (4H system) inflammatory environment, as well as in a Th1 inflammatory state specific to arterial smooth muscle cells (CASM3C system). […]
as §3, with “Specific BioMAP activities have been correlated to in vivo biology, and multiparameter BioMAP profiles have been used to distinguish compounds based on MoA and target selectivity across diverse physiological systems.” left out
as §4

[3] = tested on: CASM3C system: coronary artery smooth muscle cells (IL-1β, TNFα, IFNγ); test: BioMAP Diversity PLUS, CASM3C system; format: cell-based, human; conditions: 2.2 μM
Excerpt: as §1, with “μM). […]” for “μM).”
(§6) Each test agent generates a signature BioMAP profile that is created from the changes in protein biomarker readouts within individual system environments. Biomarker readouts (7-17 per system) are selected for therapeutic and biological relevance, are predictive for disease outcomes or specific drug effects and are validated using agents with known mechanism of action (MoA). Each readout is measured quantitatively by immune-based methods that detect protein (e.g., ELISA) or functional assays that measure proliferation and viability. BioMAP readouts are diverse and include cell surface receptors, cytokines, chemokines, matrix molecules and enzymes. […]

[4] = tested on: HDF3CGF system: dermal fibroblasts (IFNγ, TNFα, IL-1β, EGF, bFGF, PDGF-BB); test: BioMAP Diversity PLUS, HDF3CGF system; format: cell-based, human; conditions: HDF3CGF
Excerpt: as §1, §2, §3, §4

[5] = tested on: twelve different human primary cell systems mimicking various disease states; test: BioMAP Diversity PLUS panel, twelve human primary cell systems (summary by disease); format: cell-based; set-up: key: x: Significantly reduced cell-based biomarkers relevant to specific diseases and conditions
Excerpt: As a proof of concept, 14 compounds were selected from our compound library based on predicted efficacy in lowering inflammation in dolphins. Pure synthetic forms of these compounds were screened for cell-based activities (relevant to multiple aging-associated diseases and diseases that may impact longevity) using twelve different human primary cell systems mimicking various disease states (TABLE 4—description of primary human cell systems used to screen selected compounds in library).
as §1, §2, §3, §4

[6] = tested on: LPS system: venular endothelial cells, peripheral blood mononuclear cells (TLR4 ligand); test: BioMAP Diversity PLUS, LPS system; format: cell-based, human
Excerpt: as §1, §2
as §6, with “enzymes. In total, the Diversity PLUS panel contains 148 biomarker readouts that capture biological changes that occur within the physiological context of the particular BioMAP system.” for “enzymes.”
as §4

[7] = tested on: SAg system: venular endothelial cells, peripheral blood mononuclear cells (TCR ligands); test: BioMAP Diversity PLUS, SAg system; format: cell-based, human
Excerpt: as §1, §2, §3, §4

[8] = tested on: BE3C system: bronchial epithelial cells (IL-1β, IFNγ, TNFα); test: BioMAP Diversity PLUS, BE3C system; format: cell-based, human
Excerpt: as §1, §5
as §6, with “enzymes. In total, the Diversity PLUS panel contains 148 biomarker readouts that capture biological changes that occur within the physiological context of the particular BioMAP system.” for “enzymes.”
as §4

[9] = tested on: /Mphg system: macrophages, venular endothelial cells (TLR2 ligand); test: BioMAP Diversity PLUS, /Mphg system; format: cell-based, human; conditions: 20.0 μM
Excerpt: as §1, with “μM). […]” for “μM).”
as §6

CCCCCCC=CCCCCCCCCC(=O)O [10-heptadecanoate]
−0.10 log10: Significant log10 reduction vs nontreated controls: Eotaxin 3 (CCL26) ([2]; 2.2 μM)
−0.1 log10: Significant log10 reduction vs nontreated controls: Macrophage colony-stimulating factor (M-CSF) ([4]; 6.7 μM)
−0.17 log10: Significant log10 reduction vs nontreated controls: Vascular cell adhesion molecule 1 (VCAM-1) ([4]; 6.7 μM)
x: Significantly reduced cell-based biomarkers relevant to: Allergy ([5]; Table 6) | Significantly reduced cell-based biomarkers relevant to: Asthma ([5]; Table 6) | Significantly reduced cell-based biomarkers relevant to: Autoimmunity ([5]; Table 6) | Significantly reduced cell-based biomarkers relevant to: COPD ([5]; Table 6) | Significantly reduced cell-based biomarkers relevant to: Hematological oncology ([5]; Table 6) | Significantly reduced cell-based biomarkers relevant to: Pulmonary fibrosis ([5]; Table 6) | Significantly reduced cell-based biomarkers relevant to: SLE ([5]; Table 6) | Significantly reduced cell-based biomarkers relevant to: T-cell dependent B cell proliferation ([5]; Table 6) | Significantly reduced cell-based biomarkers relevant to: Th2 type inflammation ([5]; Table 6) | Significantly reduced cell-based biomarkers relevant to: Chronic inflammation ([5]; Table 7) | Significantly reduced cell-based biomarkers relevant to: Psoriasis ([5]; Table 7) | Significantly reduced cell-based biomarkers relevant to: Restenosis ([5]; Table 7) | Significantly reduced cell-based biomarkers relevant to: Rheumatoid arthritis ([5]; Table 7) | Significantly reduced cell-based biomarkers relevant to: Thl type inflammation ([5]; Table 7) | Significantly reduced cell-based biomarkers relevant to: Fibrosis ([5]; Table 8) | Significantly reduced cell-based biomarkers relevant to: Stromal biology in tumors ([5]; Table 8) | Significantly reduced cell-based biomarkers relevant to: Vascular inflammation ([5]; Table 8)
−0.31 log10: Significant log10 reduction vs nontreated controls: Eotaxin 3 (CCL26) ([2]; 20.0 μM)
−0.11 log10: Significant log10 reduction vs nontreated controls: Secreted interleukin 2 (IL-2) ([1]; 6.7 μM)
−0.13 log10: Significant log10 reduction vs nontreated controls: Eotaxin 3 (CCL26) ([2]; 6.7 μM) | Significant log10 reduction vs nontreated controls: Serum amyloid A [3]

C=CCCCCCCCCC(=O)O [10-undecanoate]
−0.08 log10: Significant log10 reduction vs nontreated controls: Secreted prostaglandin E2 (PGE2) ([6]; 2.2 μM) | Significant log10 reduction vs nontreated controls: Tissue plasminogen activator (tPA) ([8]; 2.2 μM)
−0.25 log10: Significant log10 reduction vs nontreated controls: Secreted interleukin 17A (IL-17A) ([1]; 2.2 μM)
−0.21 log10: Significant log10 reduction vs nontreated controls: Secreted interleukin 10 (IL-10) [9]
−0.07 log10: Significant log10 reduction vs nontreated controls: Macrophage colony-stimulating factor (M-CSF) ([4]; 2.2 μM) | Significant log10 reduction vs nontreated controls: CD40 ([7]; 0.7 μM)
−0.09 log10: Significant log10 reduction vs nontreated controls: CD40 ([7]; 6.7 μM)
x: Significantly reduced cell-based biomarkers relevant to: Allergy ([5]; Table 6) | Significantly reduced cell-based biomarkers relevant to: Asthma ([5]; Table 6) | Significantly reduced cell-based biomarkers relevant to: Autoimmunity ([5]; Table 6) | Significantly reduced cell-based biomarkers relevant to: Hematological oncology ([5]; Table 6) | Significantly reduced cell-based biomarkers relevant to: SLE ([5]; Table 6) | Significantly reduced cell-based biomarkers relevant to: T-cell dependent B cell proliferation ([5]; Table 6) | Significantly reduced cell-based biomarkers relevant to: Atherosclerosis ([5]; Table 7) | Significantly reduced cell-based biomarkers relevant to: Chronic inflammation ([5]; Table 7) | Significantly reduced cell-based biomarkers relevant to: Metabolic diseases ([5]; Table 7) | Significantly reduced cell-based biomarkers relevant to: Organ transplantation ([5]; Table 7) | Significantly reduced cell-based biomarkers relevant to: Psoriasis ([5]; Table 7) | Significantly reduced cell-based biomarkers relevant to: Restenosis ([5]; Table 7) | Significantly reduced cell-based biomarkers relevant to: Rheumatoid arthritis ([5]; Table 7) | Significantly reduced cell-based biomarkers relevant to: Thl type inflammation ([5]; Table 7) | Significantly reduced cell-based biomarkers relevant to: Crohn's disease ([5]; Table 8) | Significantly reduced cell-based biomarkers relevant to: Fibrosis ([5]; Table 8) | Significantly reduced cell-based biomarkers relevant to: Hematological oncology ([5]; Table 8) | Significantly reduced cell-based biomarkers relevant to: Pulmonary responses to respiratory infections ([5]; Table 8) | Significantly reduced cell-based biomarkers relevant to: Sarcoidosis ([5]; Table 8) | Significantly reduced cell-based biomarkers relevant to: Stromal biology in tumors ([5]; Table 8)
−0.14 log10: Significant log10 reduction vs nontreated controls: CD40 ([7]; 2.2 μM)
−0.12 log10: Significant log10 reduction vs nontreated controls: Tumor necrosis factor alpha (TNFα) ([1]; 20.0 μM) | Significant log10 reduction vs nontreated controls: Tissue plasminogen activator (tPA) ([8]; 20.0 μM)
−0.11 log10: Significant log10 reduction vs nontreated controls: Macrophage colony-stimulating factor (M-CSF) ([4]; 0.7 μM) | Significant log10 reduction vs nontreated controls: Secreted prostaglandin E2 (PGE2) ([6]; 0.7 μM) | Significant log10 reduction vs nontreated controls: CD40 ([6]; 20.0 μM) | Significant log10 reduction vs nontreated controls: CD40 ([7]; 20.0 μM) | Significant log10 reduction vs nontreated controls: Tissue plasminogen activator (tPA) ([8]; 6.7 μM)
−0.20 log10: Significant log10 reduction vs nontreated controls: Secreted interleukin 17A (IL-17A) ([1]; 20.0 μM) | Significant log10 reduction vs nontreated controls: Secreted prostaglandin E2 (PGE2) ([6]; 6.7 μM)
